pIC50: −log10 of the molar value.
target: T1, human IRAK-4 (Homo sapiens, UniProt Q9NWZ3); assay: Phosphorylation IC50 determination for human IRAK-4 (ADP-Glo Kinase Assay); conditions: human IRAK-4, substrate RIP140, Km ATP; read-out: IRAK4 ADPglo biochemical assay IC50
T1 construct: purchased Carna Biosciences 09 145
T1 sequence (Q9NWZ3 1-460): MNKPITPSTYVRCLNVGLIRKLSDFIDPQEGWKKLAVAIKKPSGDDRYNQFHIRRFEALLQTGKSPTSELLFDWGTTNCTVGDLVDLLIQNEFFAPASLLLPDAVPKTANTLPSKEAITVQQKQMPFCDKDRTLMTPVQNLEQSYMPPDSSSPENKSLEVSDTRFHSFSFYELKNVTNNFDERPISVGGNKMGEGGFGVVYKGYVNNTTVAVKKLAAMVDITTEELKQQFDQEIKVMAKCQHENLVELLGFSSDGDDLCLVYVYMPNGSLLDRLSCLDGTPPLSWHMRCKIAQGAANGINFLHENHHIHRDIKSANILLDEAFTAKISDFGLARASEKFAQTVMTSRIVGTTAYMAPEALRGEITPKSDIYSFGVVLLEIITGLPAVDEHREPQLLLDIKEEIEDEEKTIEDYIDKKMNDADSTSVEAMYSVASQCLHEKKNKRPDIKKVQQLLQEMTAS
Protocol: The phosphorylation of the substrate RIP140 (SEQ ID1) by IRAK4 at Km ATP was detected with the ADP-Glo Kinase Assay (Promega, Cat #V9103), a luminescent kinase assay which measures the ADP formed from a kinase reaction. (Zegzouti et al. 2009) In a second step the kinase reaction was terminated and all the remaining ATP was depleted. In a final step the ADP was converted into ATP and this newly synthesized ATP was measured by using a luciferase/luciferin reaction with a luminescent reader. The luminescent signal positively correlated with kinase activity, in particular kinase inhibition giving a decrease of the luminescent signal.
For the semi-automated assay, the positive control (100% inhibition) was prepared by diluting 10 mM staurosporine stock mixture (20 μL) in water (3.8 mL) and DMSO (180 μL), thus resulting in a […] staurosporine solution at 1% DMSO (final concentration after further dilution in the kinase reaction).
For the automated assay, no pre-dilution of the 10 mM staurosporine stock was made. 10 mM staurosporine was spotted directly in the assay plate using acoustic dispensing and complemented with DMSO to result in a similar final concentration as mentioned above.
For the semi-automated assay, the negative control (0% inhibition) was prepared by mixing water (3.8 mL) and DMSO (200 μL) resulting in a final concentration of 1% DMSO after further dilution in the kinase reaction. For the automated assay no pre-dilution of DMSO was done. 100% DMSO was spotted directly on the assay plate.
The assay buffer solution was prepared at a concentration corresponding to 5 fold the final (most diluted) assay concentration by mixing a solution of 125 mM TRIS pH 7.5+0.05% Triton X-100+2.5 mM EGTA (5.27 mL) with 1M mgCl2 (72 μL), 1M DTT (57.6 μL), and 200 mM MnCl2 (360 μL).
For example, for the semi-automated method, the enzyme-substrate mixture was prepared by mixing water (3999 μL), assay buffer solution (1380 μL), 1 mM RIP140 (138 μL—SEQ ID1), and 200 ng/mL IRAK 4 (3.45 μL Carna Biosciences, 09 145).
For semi-automated method, the ATP mixture was prepared at a concentration corresponding to 2.5 fold the final (most diluted) assay concentration of the semi-automated method and 1.5 fold the final (most diluted) assay concentration of the automated method. For example, for the semi-automated method, the ATP mixture was prepared by mixing water (4126 μL), assay buffer solution (1380 μL), and 10 mM ATP (13.80 μL).
The assay are performed either in a semi-automated or fully automated manner. The assay volume and the incubation time of the ADP detection were different accordingly the method used.
The compounds were prepared as a serial dilution of 10 point dose responses with 1/5 dilution steps in 100% DMSO starting from 2 mM highest concentration, diluted 1/20 in water. 1 μL was transferred dry to the assay plates.
On each assay plate 32 wells of each control (positive & negative) were added, followed by 2 μL enzyme-substrate mixture.
The reaction was started by adding 2 μL diluted ATP (final concentration Km ATP) on the assay plates. Plates were centrifuged for a few seconds at 1000 rpm followed by an incubation at r.t. for 120 min.
The reactions were stopped and the unconsumed ATP was depleted by adding 5 μL ADP-glo Reagent (Promega, Cat #V9103) to the reaction. The plates were quickly centrifuged at 1000 rpm and incubated at r.t. for 40 min corresponding to full ATP depletion.
The ADP was converted back to ATP and luciferase and luciferin were introduced to detect ATP by adding 10 μL kinase detection reagent (Promega, Cat #V9103) to the reaction. The plates were centrifuged for a few seconds at 1000 rpm and incubated at r.t. for a further 30 min.
Luminescent read out was performed on an Envision luminescent reader (Perkin Elmer).
For the automated assay, the compounds were prepared as a serial dilution of 10 point dose responses with 1/5 dilution steps in 100% DMSO starting from 2 mM highest concentration. […]

Structure (SMILES)	pIC50
O=C(Nc1cn2cc(C3CCOCC3)nc2cc1C(=O)NCC(F)F)c1cccc(C(F)(F)F)n1 [Compound 17, N-(2,2-difluoroethyl)-2-(tetrahydro-2H-pyran-4-yl)-6-(6-(trifluoromethyl)picolinamido)imidazo[1,2-a]pyridine-7-carboxamide]	8.00 to 8.30
O=C(Nc1cn2cc(C3CCOCC3)nc2cc1C(=O)NC1COC1)c1cccc(C(F)(F)F)n1 [Compound 22, N-(oxetan-3-yl)-2-(tetrahydro-2H-pyran-4-yl)-6-(6-(trifluoromethyl)picolinamido)imidazo[1,2-a]pyridine-7-carboxamide]	7.30 to 8.00
CCNC(=O)c1cc2nc(C3CCOCC3)cn2cc1NC(=O)c1cccc(C(F)(F)F)n1 [Compound 16, N-ethyl-2-(tetrahydro-2H-pyran-4-yl)-6-(6-(trifluoromethyl)picolinamido)imidazo[1,2-a]pyridine-7-carboxamide]	7.30 to 8.00

Other lines, results leading:

pIC50	Structure (SMILES)
7.30 to 8.00	O=C(Nc1cn2cc(C3CCOCC3)nc2cc1C(=O)NC1CC1)c1cccc(C(F)(F)F)n1 [Compound 15, N-cyclopropyl-2-(tetrahydro-2H-pyran-4-yl)-6-(6-(trifluoromethyl)picolinamido)imidazo[1,2-a]pyridine-7-carboxamide]
7.30 to 8.00	O=C(Nc1cn2cc(C3CCOCC3)nc2cc1C(=O)NCC(F)(F)F)c1cccc(C(F)(F)F)n1 [Compound 21, 2-(tetrahydro-2H-pyran-4-yl)-N-(2,2,2-trifluoroethyl)-6-(6-(trifluoromethyl)picolinamido)imidazo[1,2-a]pyridine-7-carboxamide]
7.30 to 8.00	CC(C)(C)NC(=O)c1cc2nc(C3CCOCC3)cn2cc1NC(=O)c1cccc(C(F)(F)F)n1 [Compound 18, N-(tert-butyl)-2-(tetrahydro-2H-pyran-4-yl)-6-(6-(trifluoromethyl)picolinamido)imidazo[1,2-a]pyridine-7-carboxamide]
7.30 to 8.00	COc1cc2nc(C3CCS(=O)(=O)CC3)cn2cc1NC(=O)c1cccn(C)c1=O [Compound 24, N-(2-(1,1-dioxidotetrahydro-2H-thiopyran-4-yl)-7-methoxyimidazo[1,2-a]pyridin-6-yl)-1-methyl-2-oxo-1,2-dihydropyridine-3-carboxamide]

— patent US20220296573A1, “NOVEL COMPOUNDS AND PHARMACEUTICAL COMPOSITIONS THEREOF FOR THE TREATMENT OF INFLAMMATORY DISORDERS” (Galapagos NV, priority 2019, published 2022)
